According to PMC6152727, “Potential of Icariin Metabolites from Epimedium koreanum Nakai as Antidiabetic Therapeutic Agents” (Molecules : A Journal of Synthetic Chemistry and Natural …, 2017):

Key:
Type in all cases: biochemical
human recombinant PTP1B [1] = target: T1, human recombinant PTP1B (Homo sapiens, UniProt P18031); experiment: PTP1B activity assay (pNPP substrate); details: mean ± SEM of triplicate experiments
T1 construct: purchased Biomol International LP (Plymouth Meeting, PA, USA)
T1 sequence (P18031 1-435): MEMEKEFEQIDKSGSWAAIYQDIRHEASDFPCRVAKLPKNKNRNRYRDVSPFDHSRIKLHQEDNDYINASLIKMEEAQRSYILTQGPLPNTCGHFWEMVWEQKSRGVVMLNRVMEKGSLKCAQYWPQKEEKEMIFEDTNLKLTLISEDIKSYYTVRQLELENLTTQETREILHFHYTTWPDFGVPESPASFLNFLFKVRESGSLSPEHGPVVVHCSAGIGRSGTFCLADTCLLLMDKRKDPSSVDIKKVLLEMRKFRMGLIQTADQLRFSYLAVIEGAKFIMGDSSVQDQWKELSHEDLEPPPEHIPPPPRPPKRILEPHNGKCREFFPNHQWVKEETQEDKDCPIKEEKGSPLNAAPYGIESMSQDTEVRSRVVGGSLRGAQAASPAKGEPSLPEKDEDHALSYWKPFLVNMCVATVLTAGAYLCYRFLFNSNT
Protocol: The abilities of the aerial parts of E. koreanum and their constituents to inhibit human recombinant PTP1B activity were evaluated using pNPP as a substrate. […] After incubation at 37 °C for 20 min in the dark, the reaction was terminated by addition of 10 M NaOH. The amount of p-nitrophenylate produced by enzymatic dephosphorylation of pNPP was determined by measuring the absorbance at 405 nm using a microplate spectrophotometer (Molecular Devices). Non-enzymatic dephosphorylation of pNPP was corrected by measuring the increase in absorbance at 405 nm obtained in the absence of PTP1B. […] The percent inhibition was calculated as {(AC − AS)/AC} × 100, where AC is the absorbance of the control, and AS is the absorbance of the sample. The IC50 is expressed as the mean ± SEM of triplicate experiments.

yeast α-glucosidase = experiment: α-Glucosidase activity assay (pNPG substrate); details: for IC50: mean ± SEM of triplicate experiments, final concentration 20 to 300 μM
Protocol: α-Glucosidase enzymatic activity was assayed spectrophotometrically as described previously. Briefly, 60 μL of reaction mixture containing 20 μL of 100 mM phosphate buffer (pH 6.8), 20 μL of 2.5 mM pNPG, and 20 μL of sample (final concentration ranging from 20 to 300 μM, dissolved in 10% DMSO) was added to each well. After incubation at 37 °C for 5 min in the dark, 20 μL of yeast α-glucosidase (0.2 U/mL) in 10 mM phosphate buffer (pH 6.8) was added. The plate was then incubated at 37 °C for 15 min in the dark, after which the reaction was stopped by the addition of 80 μL of 0.2 M sodium carbonate solution. The absorbance was immediately recorded at 405 nm using a microplate spectrophotometer (Molecular Devices). The control consisted of the same reaction mixture but with the sample solution replaced by an equivalent volume of phosphate buffer. […] The inhibition percentage (%) was obtained using the same equation as in the PTP1B enzymatic assay.

human recombinant PTP1B [2] = target: T1, human recombinant PTP1B; experiment: Enzyme kinetics analysis of PTP1B (Lineweaver–Burk and Dixon plots); details: for PTP1B Inhibition Type: determined by the Lineweaver–Burk plot
Protocol: The inhibition type and inhibition constant (Ki) of the two compounds were determined using Lineweaver–Burk and Dixon plots. Each line of the inhibitors penetrate the same point at the x-intercept, indicating noncompetitive-type inhibition, and the x-axis represent-Kiwhen 1/V = 0. […] The Dixon plot is an established method for determining the enzyme inhibition type and the Ki value for an enzyme-inhibitor complex, where the value of the x-axis indicates Ki.
In order to determine the inhibition mechanism, two complementary kinetics methods were used: Lineweaver–Burk and Dixon plots. The level of enzymatic inhibition at various concentrations of test sample was evaluated by monitoring the effect of different substrate concentrations in Dixon plots (single reciprocal plots). Dixon plots for PTP1B inhibition were obtained in the presence of different concentrations of pNPP. Using Lineweaver–Burk plots (double reciprocal plots), the inhibition modes of the compounds were determined at various concentrations of pNPP with different concentrations of compounds. The enzymatic procedures were the same as for the PTP1B assay methods. The types of inhibition were investigated by interpreting the Dixon plots, in which the value of the x-axis indicates Ki.

| Compound | IC50 (human recombinant PTP1B [1]) [µM] | IC50 (yeast α-glucosidase) [µM] | Ki (human recombinant PTP1B [2]; determined by the Dixon plot) [µM] | α-glucosidase inhibition (in words) (yeast α-glucosidase; at any of the tested concentrations) | PTP1B Inhibition Type (human recombinant PTP1B [2]) |
| --- | --- | --- | --- | --- | --- |
| COc1ccc(-c2oc3c(CC=C(C)C)c(O[C@@H]4O[C@H](CO)[C@@H](O)[C@H](O)[C@H]4O)cc(O)c3c(=O)c2O[C@@H]2O[C@@H](C)[C@H](O)[C@@H](O)[C@H]2O[C@@H]2OC[C@@H](O)[C@H](O)[C@H]2O)cc1 [Epimedin B, epimedin B] | > 300 | 452 ± 5.36 |  |  |  |
| COc1ccc(-c2oc3c(CC=C(C)C)c(OC4OC(CO)C(O)C(O)C4O)cc(O)c3c(=O)c2OC2OC(C)C(O)C(O)C2OC2OC(CO)C(O)C(O)C2O)cc1 (centres unmarked) [Epimedin A, epimedin A] | > 300 | 444.1 ± 3.8 |  |  |  |
| COc1ccc(-c2oc3c(CC=C(C)C)c(O[C@@H]4O[C@H](CO)[C@@H](O)[C@H](O)[C@H]4O)cc(O)c3c(=O)c2O[C@@H]2O[C@@H](C)[C@H](O)[C@@H](O)[C@H]2O[C@@H]2O[C@@H](C)[C@H](O)[C@@H](O)[C@H]2O)cc1 [Epimedin C, epimedin C] | > 300 | 403.9 ± 1.53 |  |  |  |
| icariside II |  | 106.6 ± 0.44 |  |  | Non-competitive |

Further lines, with some results ahead:

| IC50 (human recombinant PTP1B [1]) [µM] | IC50 (yeast α-glucosidase) [µM] | Ki (human recombinant PTP1B [2]; determined by the Dixon plot) [µM] | Compound | α-glucosidase inhibition (in words) (yeast α-glucosidase; at any of the tested concentrations) | PTP1B Inhibition Type (human recombinant PTP1B [2]) |
| --- | --- | --- | --- | --- | --- |
| > 300 |  |  | COc1ccc(-c2oc3c(CC=C(C)C)c(O[C@@H]4O[C@H](CO)[C@@H](O)[C@H](O)[C@H]4O)cc(O)c3c(=O)c2O[C@@H]2O[C@@H](C)[C@H](O)[C@@H](O)[C@H]2O)cc1 [Icariin, icariin] | did not inhibit α-glucosidase activity at any of the tested concentrations |  |
| 11.6 ± 1.39 | 74.42 ± 0.01 | 11.4 | COc1ccc(-c2oc3c(CC=C(C)C)c(O)cc(O)c3c(=O)c2O)cc1 [Icaritin, icaritin] |  | Non-competitive |
